*1 amine or outer side, *2 acyl side, *3 side chain or, on linkers, in order; H or OH if unused. Where a SMILES comes first, the peptide text is derived from it. Bridges are numbered along the chain shown (N, C = ends). [ ]: non-standard residue; d: D form. The star is where a group is joined. C20 diacid = O=C(O)CCCCCCCCCCCCCCCCCCC(=O)*; Pro(4R-NH2) = N[C@H]1CN[C@H](C(=O)O)C1; γGlu = O=C(O)[C@H](CCC(=O)[*:2])N[*:1]; Hyp = O=C(O)[C@@H]1C[C@@H](O)CN1; NMeI = CC[C@H](C)[C@H](NC)C(=O)O; Sar = CNCC(=O)O
target: T1, human calcitonin receptor (hCTR2) (Homo sapiens, UniProt P30988); experiment: hCTR2 cAMP assay (AlphaScreen) in COS7 cells; type: cell-based; conditions: cAMP induction, COS7 cells expressing hCTR2; Table 1; read-out: hCTR2 EC50
T1 construct: expressed in transfected cells
T1 sequence (P30988 25-474): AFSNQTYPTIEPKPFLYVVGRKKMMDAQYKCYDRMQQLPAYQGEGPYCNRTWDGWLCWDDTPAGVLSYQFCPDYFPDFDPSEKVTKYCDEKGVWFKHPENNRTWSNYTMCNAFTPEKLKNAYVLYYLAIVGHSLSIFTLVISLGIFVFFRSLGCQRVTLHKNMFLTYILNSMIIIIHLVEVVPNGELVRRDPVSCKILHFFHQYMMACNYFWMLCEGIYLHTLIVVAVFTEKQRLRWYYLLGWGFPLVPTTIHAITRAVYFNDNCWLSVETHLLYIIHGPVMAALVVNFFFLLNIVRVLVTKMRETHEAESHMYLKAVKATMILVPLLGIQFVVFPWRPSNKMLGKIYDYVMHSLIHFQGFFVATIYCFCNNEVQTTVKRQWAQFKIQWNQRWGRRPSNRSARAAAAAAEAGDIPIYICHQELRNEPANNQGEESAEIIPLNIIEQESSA
Excerpt: The cell line COS7, originating from African Green Monkey kidney fibroblast cells, was used for establishment of the stable cell lines described below. The COS7 cellular background was used due to it being RAMP naïve, and as such it provides the best available system for testing of the monomeric hCTR and different heterodimeric amylin receptor subtypes functionally generated by introduction of the individual RAMPs.
A cell line expressing the human calcitonin receptor (hCTR2) was generated in the COS7 cellular background as stable clones. In brief, hCTR2 (GI: 4502547) was amplified by PCR using primers encoding terminal restriction sites for subcloning. The 5′-end primers additionally encoded a near Kozak consensus sequence to ensure efficient translation. The fidelity of the DNA encoding the receptor was confirmed by DNA sequencing. The PCR products encoding the receptor were subcloned into a mammalian expression vector containing a neomycin (G418) resistance marker. The mammalian expression vector encoding the receptor was transfected into COS7 cells by a standard liposome transfection method. 48 hours post-transfection, cells were seeded for limited dilution cloning and selected with 1 mg/ml G418 in the culture medium. After 3 weeks, surviving colonies of hCTR2-expressing cells were picked, propagated and tested in the amylin efficacy assay as described in Example 3 below. One hCTR2-expressing clone was chosen for compound profiling.
In vitro activity of test peptides at the hCTR2 and hAMYR3 receptors was assessed by measuring the induction of cAMP following stimulation of the receptor using the AlphaScreen® cAMP Assay kit from Perkin-Elmer.
Briefly, COS7 cells expressing hCTR2 (see Example 2, above) were seeded at 30-40,000 cells per well in 96-well microtiter plates coated with 0.01% poly-L-lysine, and grown for 1 day in culture in 100 μl growth medium [DMEM, 10% FCS, Penicillin (100 IU/ml), Streptomycin (100 μg/ml)]. On the day of analysis, growth medium was removed and the cells were washed once with 200 μl Tyrode buffer [Tyrode's Salts (9.6 g/I), 10 mM HEPES, pH 7.4]. Cells were incubated in 100 μl Tyrode buffer containing increasing concentrations of test peptides, 100 µM IBMX and 0.1% casein for 15 min at 37° C. The reaction was stopped by carefully decanting off the compound/buffer medium and replacing it with lysis/detection buffer (80 μl 0.1% w/v BSA, 5 mM HEPES, 0.3% v/v Tween-20 in deionized water). After incubation at room temperature for 10 min., the cAMP content of the resulting cell lysate was estimated according to the AlphaScreen® cAMP Assay manufacturer's instructions. EC50 values were estimated by computer-aided curve fitting using the 4-parameter logistic (4PL) non-linear model.

SMILES	EC50 [pM]
CC[C@H](C)[C@@H](C(=O)N[C@@H](CC(C)C)C(=O)N[C@@H](CO)C(=O)N[C@@H](CO)C(=O)N[C@H](C(=O)N[C@@H](CCC(=O)O)C(=O)N[C@H](C(=O)NCC(=O)N[C@@H](CO)C(=O)N[C@@H](CC(N)=O)C(=O)N[C@H](C(=O)N1CCC[C@H]1C(N)=O)[C@@H](C)O)C(C)C)[C@@H](C)O)N(C)C(=O)[C@H](C)NC(=O)CN(C)C(=O)[C@H](Cc1ccccc1)NC(=O)[C@H](CO)NC(=O)[C@H](CO)NC(=O)[C@H](CCCNC(=N)N)NC(=O)[C@H](CCC(N)=O)NC(=O)[C@H](CC(C)C)NC(=O)[C@H](Cc1ccccc1)NC(=O)[C@H](CC(=O)O)NC(=O)[C@H](C)NC(=O)[C@H](CC(C)C)NC(=O)[C@H](CCCNC(=N)N)NC(=O)[C@H](CCC(=O)O)NC(=O)[C@@H](NC(=O)[C@H](C)NC(=O)[C@@H]1CSSC[C@H](NC(=O)[C@H](CCCNC(=N)N)NC(=O)CC[C@H](NC(=O)CCCCCCCCCCCCCCCCCCC(=O)O)C(=O)O)C(=O)N2CCC[C@H]2C(=O)N[C@@H]([C@@H](C)O)C(=O)N[C@@H](C)C(=O)N[C@@H]([C@@H](C)O)C(=O)N1)[C@@H](C)O [Compound 67, [19CD]-isoGlu-R-C( )-PTAT-C( )-ATERLADFLQRSSF-Gly(Me)-A-Ile(Me)-LSSTEVGSNTP-NH2] ({C20 diacid-γGlu}-RCPTATCATERLADFLQRSSF[Sar]A[NMeI]LSSTEVGSNTP-NH2; disulfide 2-7)	270
CC[C@H](C)[C@@H](C(=O)N[C@@H](CC(C)C)C(=O)N[C@@H](CO)C(=O)N[C@@H](CO)C(=O)N[C@H](C(=O)N[C@@H](CCC(=O)O)C(=O)N[C@H](C(=O)NCC(=O)N[C@@H](CO)C(=O)N[C@@H](CC(N)=O)C(=O)N[C@H](C(=O)N1C[C@H](O)C[C@H]1C(N)=O)[C@@H](C)O)C(C)C)[C@@H](C)O)N(C)C(=O)[C@H](C)NC(=O)CN(C)C(=O)[C@H](Cc1ccccc1)NC(=O)[C@H](CO)NC(=O)[C@H](CO)NC(=O)[C@H](CCCNC(=N)N)NC(=O)[C@@H](NC(=O)[C@H](CC(C)C)NC(=O)[C@H](Cc1ccccc1)NC(=O)[C@H](CC(N)=O)NC(=O)[C@H](C)NC(=O)[C@H](CC(C)C)NC(=O)[C@H](CCCNC(=N)N)NC(=O)[C@H](CCC(=O)O)NC(=O)[C@@H](NC(=O)[C@H](C)NC(=O)[C@@H]1CSSC[C@H](NC(=O)[C@H](CCCNC(=N)N)NC(=O)CC[C@H](NC(=O)CCCCCCCCCCCCCCCCCCC(=O)O)C(=O)O)C(=O)NCC(=O)N[C@@H]([C@@H](C)O)C(=O)N[C@@H](C)C(=O)N[C@@H]([C@@H](C)O)C(=O)N1)[C@@H](C)O)C(C)C [Compound 17, [19CD]-isoGlu-R-C( )-GTAT-C( )-ATERLANFLVRSSF-Gly(Me)-A-Ile(Me)-LSSTEVGSNT-Hyp-NH2] ({C20 diacid-γGlu}-RCGTATCATERLANFLVRSSF[Sar]A[NMeI]LSSTEVGSNT[Hyp]-NH2; disulfide 2-7)	130
CC[C@H](C)[C@@H](C(=O)N[C@@H](CC(C)C)C(=O)N[C@@H](CO)C(=O)N[C@@H](CO)C(=O)N[C@H](C(=O)N[C@@H](CCC(=O)O)C(=O)N[C@H](C(=O)NCC(=O)N[C@@H](CO)C(=O)N[C@@H](CO)C(=O)N[C@H](C(=O)N1C[C@H](N)C[C@H]1C(N)=O)[C@@H](C)O)C(C)C)[C@@H](C)O)N(C)C(=O)[C@H](C)NC(=O)CN(C)C(=O)[C@H](Cc1ccccc1)NC(=O)[C@H](CO)NC(=O)[C@H](CO)NC(=O)[C@H](CCCNC(=N)N)NC(=O)[C@@H](NC(=O)[C@H](CC(C)C)NC(=O)[C@H](Cc1ccccc1)NC(=O)[C@H](Cc1c[nH]cn1)NC(=O)[C@H](C)NC(=O)[C@H](CC(C)C)NC(=O)[C@H](CCCNC(=N)N)NC(=O)[C@H](CCC(=O)O)NC(=O)[C@@H](NC(=O)[C@H](C)NC(=O)[C@@H]1CSSC[C@H](NC(=O)[C@H](CCCNC(=N)N)NC(=O)CC[C@H](NC(=O)CCCCCCCCCCCCCCCCCCC(=O)O)C(=O)O)C(=O)NCC(=O)N[C@@H]([C@@H](C)O)C(=O)N[C@@H](C)C(=O)N[C@@H]([C@@H](C)O)C(=O)N1)[C@@H](C)O)[C@@H](C)O [Compound 45, [19CD]-isoGlu-R-C( )-GTAT-C( )-ATERLAHFLTRSSF-Gly(Me)-A-Ile(Me)-LSSTEVGSST-Apr-NH2] ({C20 diacid-γGlu}-RCGTATCATERLAHFLTRSSF[Sar]A[NMeI]LSSTEVGSST[Pro(4R-NH2)]-NH2; disulfide 2-7)	160

Second part, the compound after the results:

EC50 [pM]	SMILES
580	CC[C@H](C)[C@@H](C(=O)N[C@@H](CC(C)C)C(=O)N[C@@H](CO)C(=O)N[C@@H](CO)C(=O)N[C@H](C(=O)N[C@@H](CCC(=O)O)C(=O)N[C@H](C(=O)NCC(=O)N[C@@H](CO)C(=O)N[C@H](C(=O)N[C@H](C(=O)N1C[C@H](O)C[C@H]1C(N)=O)[C@@H](C)O)[C@@H](C)O)C(C)C)[C@@H](C)O)N(C)C(=O)[C@H](C)NC(=O)CN(C)C(=O)[C@H](Cc1ccccc1)NC(=O)[C@H](CO)NC(=O)[C@H](CO)NC(=O)[C@H](CCCNC(=N)N)NC(=O)[C@H](CCC(N)=O)NC(=O)[C@H](CC(C)C)NC(=O)[C@H](Cc1ccccc1)NC(=O)[C@H](Cc1c[nH]cn1)NC(=O)[C@H](C)NC(=O)[C@H](CC(C)C)NC(=O)[C@H](CCCNC(=N)N)NC(=O)[C@H](CCC(=O)O)NC(=O)[C@@H](NC(=O)[C@H](C)NC(=O)[C@@H]1CSSC[C@H](NC(=O)[C@H](CCCNC(=N)N)NC(=O)CC[C@H](NC(=O)CCCCCCCCCCCCCCCCCCC(=O)O)C(=O)O)C(=O)N2CCC[C@H]2C(=O)N[C@@H]([C@@H](C)O)C(=O)N[C@@H](C)C(=O)N[C@@H]([C@@H](C)O)C(=O)N1)[C@@H](C)O [Compound 74, [19CD]-isoGlu-R-C( )-PTAT-C( )-ATERLAHFLQRSSF-Gly(Me)-A-Ile(Me)-LSSTEVGSTT-Hyp-NH2] ({C20 diacid-γGlu}-RCPTATCATERLAHFLQRSSF[Sar]A[NMeI]LSSTEVGSTT[Hyp]-NH2; disulfide 2-7)
120	CC[C@H](C)[C@@H](C(=O)N[C@@H](CC(C)C)C(=O)N[C@@H](CO)C(=O)N[C@@H](CO)C(=O)N[C@H](C(=O)N[C@@H](CCC(=O)O)C(=O)N[C@H](C(=O)NCC(=O)N[C@@H](CO)C(=O)N[C@@H](CC(N)=O)C(=O)N[C@H](C(=O)N1CCC[C@H]1C(N)=O)[C@@H](C)O)C(C)C)[C@@H](C)O)N(C)C(=O)[C@H](C)NC(=O)CN(C)C(=O)[C@H](Cc1ccccc1)NC(=O)[C@H](CO)NC(=O)[C@H](CO)NC(=O)[C@H](CCCNC(=N)N)NC(=O)[C@H](CCC(N)=O)NC(=O)[C@H](CC(C)C)NC(=O)[C@H](Cc1ccccc1)NC(=O)[C@H](Cc1c[nH]cn1)NC(=O)[C@H](C)NC(=O)[C@H](CC(C)C)NC(=O)[C@H](CCCNC(=N)N)NC(=O)[C@H](CCC(N)=O)NC(=O)[C@@H](NC(=O)[C@H](C)NC(=O)[C@@H]1CSSC[C@H](NC(=O)[C@H](CCCNC(=N)N)NC(=O)CC[C@H](NC(=O)CCCCCCCCCCCCCCCCCCC(=O)O)C(=O)O)C(=O)N[C@@H](CC(N)=O)C(=O)N[C@@H]([C@@H](C)O)C(=O)N[C@@H](C)C(=O)N[C@@H]([C@@H](C)O)C(=O)N1)[C@@H](C)O [Compound 61, [19CD]-isoGlu-R-C( )-NTAT-C( )-ATQRLAHFLQRSSF-Gly(Me)-A-Ile(Me)-LSSTEVGSNTP-NH2] ({C20 diacid-γGlu}-RCNTATCATQRLAHFLQRSSF[Sar]A[NMeI]LSSTEVGSNTP-NH2; disulfide 2-7)

Source: patent US20210115104A1, “AMYLIN ANALOGUES” (Zealand Pharma A/S, priority 2015, published 2021)
